Test results: patent US6544986B2, “Pyridones and their use as modulators of serine hydrolase enzymes” (Dalhousie University, priority 2000, dated 2003)
Entries after “also recorded” stand apart in the source; their conditions may differ.

Legend:
[1] = target: human BuChE (Homo sapiens, UniProt P06276); assay: Esterase activity assay (modified Ellman), BuChE with butyrylthiocholine; assay type: biochemical; conditions: for Ki: substrate butyrylthiocholine, pH 8.0, room temperature, from slopes of Lineweaver-Burk plots vs log concentration, read-out: Esterase Ki BuChE(h)
Description: (§1) The esterase activity of BuChE or AChE was determined by a modification of the method described by Ellman et al. (32), using a buffered 5,5′-dithiobis (2-nitrobenzoic acid) (DTNB) solution. Stock DTNB solution consisted of 10 mM DTNB with 18 mM sodium bicarbonate in 0.1 M phosphate buffer, pH 7.0. Working DTNB solution was prepared by mixing 3.6 mL of 10 mM stock DTNB solution with 96.4 mL of 0.1 M phosphate buffer at pH 8.0. The assay was carried out by mixing 2.7.mL of buffered DTNB working solution (pH 8.0), 0.1 mL of BuChE or AChE in 0.005% aqueous gelatin (1 U/mL), and 0.1 mL of 50% aqueous acetonitrile, or a solution of a 2-pyridone compound of the invention in the same solvent, in a quartz cuvette of 1 cm path-length. Absorbance of this solution was calibrated to zero and the reaction was commenced by adding 0.1 mL of aqueous acetylthiocholine (AcSCh) or butyrylthiocholine (BuSCh) solutions of varying concentration (between 1.9 mM and 15 mM). The final volume was always 3.0 mL. The reactions were carried out at room temperature. The rate of change of absorbance (ΔA/min), reflecting the rate of hydrolysis of BuSCh or AcSCh, was recorded every 5 seconds for a total of 1 minute using a Milton-Roy uv-visible spectrophotometer set at λ=412 nm.
(§2) The slopes of Lineweaver-Burk plots versus Log of inhibitor concentration were used to determine the inhibitor constant Ki.
(§3) The effect of increasing amount of exemplified 2-pyridone compounds (Examples 1 to 10) on the activity of human BuChE and AChE is shown in FIGS. 1 to 10.
(§4) The compounds of Examples 1 to 9 inhibited BuChE and AChE to varying degrees. Graphs of the slopes obtained from Lineweaver-Burk double reciprocal graphs versus log of the concentration of each compound gave the inhibition constant Ki for each compound.

[2] = target: human AChE (Homo sapiens, UniProt P22303); assay: Esterase activity assay (modified Ellman), AChE with acetylthiocholine; assay type: biochemical; conditions: substrate acetylthiocholine; for Ki: read-out: Esterase Ki AChE(h)
Description: as §1, §2, §3, §4

[3] = system: trypsin-like enzymatic activity associated with BuChE; assay: Trypsin activity assay (BAPNA hydrolysis, HPLC of PNA), trypsin-like activity associated with BuChE; assay type: biochemical, human; conditions: substrate BAPNA, Tris buffer pH 8.0, 40° C.; FIG. 11
Description: (§5) The effect of 2-pyridone compounds on trypsin-like enzymatic activity associated with BuChE and that of human trypsin was determined using Nα-benzoyl-DL-arginine-p-nitroanilide (BAPNA) as the substrate. The same procedure was used to study the effect of the compounds on BuChE-trypsin mixture. Reactions were performed in 0.06 M Tris buffer at pH 8.0. […] The incubations were carried out in 1.5 mL Eppendorf tubes by mixing 0.85 mL of 0.06 M Tris buffer (pH 8.0), 0.07 mL of up to 10 mM BAPNA, 0.03 mL of 50% aqueous acetonitrile, or a solution of 2-pyridone compound (typically, a 5 mM working solution) in the same solvent, and 0.05 mL of the enzyme solution (0.5-1.5 U of trypsin in 1 mM hydrochloric acid, or up to 5.0 U of BuChE in 0.005% aqueous gelatin). The final volume of the assay mixture was always 1.0 mL. The enzyme reaction mixture was incubated at 40° C. for 15-45 hours. The use of 1.5 U of trypsin gave an amount of p-nitroaniline (PNA) produced upon cleavage of BAPNA by trypsin after 22 hours of incubation that was similar to the amount of product formed by trypsin-like activity associated with 5 U of BuChE under the same conditions.
(§6) The concentration of the PNA was determined by means of high performance liquid chromatography (HPLC). […] The rate of formation of PNA was calculated by using the following formula: […]

[4] = system: human trypsin; assay: Trypsin activity assay (BAPNA hydrolysis, HPLC of PNA), trypsin; assay type: biochemical; conditions: substrate BAPNA, Tris buffer pH 8.0, 40° C.; FIG. 12
Description: as §5, §6

[5] = pH 8.0, room temperature, from slopes of Lineweaver-Burk plots vs log concentration

human BuChE, sequence (P06276 29-602): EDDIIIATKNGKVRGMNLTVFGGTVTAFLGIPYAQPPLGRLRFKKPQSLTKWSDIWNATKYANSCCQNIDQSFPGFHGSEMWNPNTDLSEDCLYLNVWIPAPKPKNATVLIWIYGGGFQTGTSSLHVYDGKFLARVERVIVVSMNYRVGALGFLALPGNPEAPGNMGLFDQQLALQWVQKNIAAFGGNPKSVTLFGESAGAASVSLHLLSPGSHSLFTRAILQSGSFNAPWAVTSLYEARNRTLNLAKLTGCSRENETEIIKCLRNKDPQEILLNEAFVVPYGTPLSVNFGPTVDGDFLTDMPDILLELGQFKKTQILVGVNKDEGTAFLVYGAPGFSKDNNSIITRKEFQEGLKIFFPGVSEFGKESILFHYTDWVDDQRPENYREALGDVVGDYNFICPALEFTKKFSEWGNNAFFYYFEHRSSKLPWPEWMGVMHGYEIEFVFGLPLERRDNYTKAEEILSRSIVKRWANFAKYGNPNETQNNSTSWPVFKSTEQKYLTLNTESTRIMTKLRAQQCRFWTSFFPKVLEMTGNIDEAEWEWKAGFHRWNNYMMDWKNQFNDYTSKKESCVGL
human AChE, sequence (P22303 32-614): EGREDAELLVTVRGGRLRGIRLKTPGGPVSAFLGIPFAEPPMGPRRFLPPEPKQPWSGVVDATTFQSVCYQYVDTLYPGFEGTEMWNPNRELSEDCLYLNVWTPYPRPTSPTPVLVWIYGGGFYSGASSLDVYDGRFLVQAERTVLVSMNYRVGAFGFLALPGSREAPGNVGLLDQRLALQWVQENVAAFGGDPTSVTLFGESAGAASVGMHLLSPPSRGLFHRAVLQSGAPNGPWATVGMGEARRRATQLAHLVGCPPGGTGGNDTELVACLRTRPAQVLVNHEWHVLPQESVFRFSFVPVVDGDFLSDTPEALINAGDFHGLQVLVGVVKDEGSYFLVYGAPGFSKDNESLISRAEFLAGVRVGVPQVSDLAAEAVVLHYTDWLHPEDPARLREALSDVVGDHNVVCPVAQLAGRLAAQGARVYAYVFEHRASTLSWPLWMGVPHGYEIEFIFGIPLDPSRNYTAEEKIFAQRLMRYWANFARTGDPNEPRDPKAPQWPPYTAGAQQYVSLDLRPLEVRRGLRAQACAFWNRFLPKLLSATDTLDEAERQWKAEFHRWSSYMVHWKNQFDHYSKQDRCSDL

SMILES | Ki [1] [mM] | Ki [2, 5] [mM] | effect on trypsin-like activity associated with BuChE (rate of hydrolysis of BAPNA) [3] | effect on enzymatic activity of trypsin itself [4] | inhibitory activity towards each cholinesterase studied (comparison) ([1]; BuChE versus AChE) | inhibition of the activity of AChE on acetylthiocholine (in words) [2] | Esterase Ki AChE(h) [2, 5]
O=C(c1ccc(=O)[nH]c1)N(Cc1ccccc1)Cc1ccccc1 [Example 1, 5-(N,N-Dibenzyl)aminocarbonyl-2-pyridone] | 0.0375 | 0.26 | increased the rate of hydrolysis; also recorded: considerably enhanced | do not have direct effect on trypsin alone |  |  | 
CC(C)N(C(=O)c1ccc(=O)[nH]c1)C(C)C [Example 2, 5-(N,N-Diisopropyl)aminocarbonyl-2-pyridone] | 1.43 | 0.131 |  |  |  |  | 
CCN(CC)C(=O)c1ccc(=O)[nH]c1 [Example 3, 5-(N,N-Diethyl)aminocarbonyl-2-pyridone] | 1.3 | 7.6 |  |  |  |  | 
CCN(CC)Cc1ccc(=O)[nH]c1 [Example 4, 5-(N,N-Diethyl)aminomethyl-2-pyridone] | 3.89 | 4.77 |  |  | equal inhibitory activity |  | 
O=C(NC1CCCCC1)c1ccc(=O)[nH]c1 [Example 7, 5-(N-Cyclohexyl)aminocarbonyl-2-pyridone] | 0.137 |  |  |  |  | no inhibition | Insignificant inhibition
